Laboratory results from patent US12534456B2, “Heterocyclyl pyridines as novel fungicides” (Bayer Aktiengesellschaft, priority 2020, dated 2026).
Like-named read-outs stand apart in the source and are kept apart here.

How the values were obtained:
Fusarium culmorum = Fusarium culmorum in vitro cell test; format: cell-based; settings: 96 h, read-out: efficacy (inhibition of fungal growth)
Description: B-9. Fusarium culmorum In Vitro Cell Test
• Solvent: DMSO • Culture medium: 14.6 g anhydrous D-glucose (VWR), 7.1 g Mycological Peptone (Oxoid), 1.4 g granulated Yeast Extract (Merck), QSP 1 liter • Inoculum: spore suspension
Fungicides were solubilized in DMSO and the solution used to prepare the required range of concentrations. The final concentration of DMSO used in the assay was ≤1%.
A spore suspension of F. culmorum was prepared and diluted to the desired spore density.
Fungicides were evaluated for their ability to inhibit spore germination and mycelium growth in liquid culture assay. The compounds were added in the desired concentration to the culture medium with spores. After 4 days incubation, fungi-toxicity of compounds was determined by spectrometric measurement of mycelium growth. Inhibition of fungal growth was determined by comparing the absorbance values in wells containing the fungicides with the absorbance in control wells without fungicides.

Pyricularia oryzae = experiment: microbe, parasite or virus in culture; format: cell-based; settings: 120 h, read-out: efficacy (inhibition of fungal growth)
physchem = format: physicochemical; settings: Table 1, compounds of formula (I); method [a]: LC-UV, acidic range, 0.1% formic acid in water and acetonitrile
Description: Measurement of Log P values as provided herein was performed according to EEC directive 79/831 Annex V.A8 by HPLC (High Performance Liquid Chromatography) on reversed phase columns with the following methods: • ^[a]
If more than one Log P value is available within the same method, all the values are given and separated by “+”.
Lambda-max-values were determined using UV-spectra from 200 nm to 400 nm and the peak values of the chromatographic signals

[1] = system: Colletotrichum lindemuthianum; experiment: Colletotrichum lindemuthianum in vitro cell test; format: cell-based; settings: 144 h, 20 ppm of active ingredient, liquid culture with spores, 6 days incubation, spectrometric measurement of mycelium growth, read-out: efficacy (inhibition of fungal growth)
Description: (§1) B-7. Colletotrichum lindemuthianum In Vitro Cell Test • Solvent: DMSO • Culture medium: 14.6 g anhydrous D-glucose (VWR), 7.1 g Mycological Peptone (Oxoid), 1.4 g granulated Yeast Extract (Merck), QSP 1 liter • Inoculum: spores suspension • Fungicides were solubilized in DMSO and the solution used to prepare the required range of concentrations. […] A spore suspension of C. lindemuthianum was prepared and diluted to the desired spore density. Fungicides were evaluated for their ability to inhibit spores germination and mycelium growth in liquid culture assay. The compounds were added in the desired concentration to the culture medium with spores. After 6 days incubation, fungi-toxicity of compounds was determined by spectrometric measurement of mycelium growth. Inhibition of fungal growth was determined by comparing the absorbance values in wells containing the fungicides with the absorbance in control wells without fungicides.

Alternaria alternata = Alternaria alternata in vitro cell test; format: cell-based; settings: 120 h, 20 ppm of active ingredient, liquid culture with spores, 5 days incubation, spectrometric measurement of mycelium growth, read-out: efficacy (inhibition of fungal growth)
Description: as §1, with “B-5. Alternaria alternata In” for “B-7. Colletotrichum lindemuthianum In”, “of A. alternata” for “of C. lindemuthianum”, “inhibit spore” for “inhibit spores”, “After 5” for “After 6”

Septoria tritici = Septoria tritici in vitro cell test; format: cell-based; settings: Zymoseptoria tritici, 168 h; 20 ppm of active ingredient; liquid culture with spores, 7 days incubation, spectrometric measurement of mycelium growth; read-out: efficacy (inhibition of fungal growth)
Description: B-8. Septoria tritici In Vitro Cell Test • Solvent: DMSO • Culture medium: 1 g KH2PO4 (VWR), 1 g K2HPO4 (VWR), 0.5 g Urea (VWR), 3 g KNO3 (Prolabo), 10 g saccharose (VWR), 0.5 g MgSO4, 7H2O (Sigma), 0.07 g CaCl2, 2H2O (Prolabo), 0.2 mg MnSO4, H2O (Sigma), 0.6 mg CuSO4, 5H2O (Sigma), 7.9 mg ZnSO4, 7H2O (Sigma), 0.1 mg H3BO3 (Merck), 0.14 mg NaMoO4, 2H2O (Sigma), 2 mg thiamine (Sigma), 0.1 mg biotine (VWR), 4 mg FeSO4, 7H2O (Sigma), QSP 1 liter • Inoculum: spore suspension Fungicides were solubilized in DMSO and the solution used to prepare the required range of concentrations. […] A spore suspension of S. tritici was prepared and diluted to the desired spore density. Fungicides were evaluated for their ability to inhibit spore germination and mycelium growth in liquid culture assay. The compounds were added in the desired concentration to the culture medium with spores. […] Inhibition of fungal growth was determined by comparing the absorbance values in wells containing the fungicides with the absorbance in control wells without fungicides.

[2] = 20 ppm of active ingredient, liquid culture with spores, 4 days incubation, spectrometric measurement of mycelium growth

`Cc1ccc(CC2CON=C(c3cc(Cl)ncc3Oc3cccc(C(F)(F)F)c3)N2)c(C)c1` (racemic) [Compound I-001, (5RS)-3-{2-chloro-5-[3-(trifluoromethyl)phenoxy]pyridin-4-yl}-5-(2,4-dimethylbenzyl)-5,6-dihydro-4H-1,2,4-oxadiazine] gave an inhibition at 20 ppm (Fusarium culmorum) of 90 to 100%, an inhibition at 20 ppm (Pyricularia oryzae) of 90 to 100% and a chromatographic logP (physchem) of 4.56. For the same molecule, the inhibition at 20 ppm [1] was 90 to 100% and the inhibition at 20 ppm (Alternaria alternata) was 90 to 100%.

Work on `Cc1cc(C2=NOCC(Cc3ccc(Cl)cc3Cl)N2)c(Oc2cccc(C3CC3)c2F)cn1` (racemic) [Compound I-029, (5RS)-3-[5-(3-cyclopropyl-2-fluorophenoxy)-2-methylpyridin-4-yl]-5-(2,4-dichlorobenzyl)-5,6-dihydro-4H-1,2,4-oxadiazine] yielded an inhibition at 20 ppm (Fusarium culmorum) of 90 to 100%, an inhibition at 20 ppm (Pyricularia oryzae) of 90 to 100% and a chromatographic logP (physchem) of 4.23. For the same molecule, the inhibition at 20 ppm [1] was 90 to 100%, the inhibition at 20 ppm (Alternaria alternata) was 90 to 100% and the inhibition at 20 ppm (Septoria tritici) was 90 to 100%.

Work on `Cc1ccc(CC2CON=C(c3cc(C(F)(F)F)ncc3Oc3cccc(C(F)(F)F)c3)N2)c(C)c1` (racemic) [Compound I-034, (5RS)-5-(2,4-dimethylbenzyl)-3-{2-(trifluoromethyl)-5-[3-(trifluoromethyl)phenoxy]pyridin-4-yl}-5,6-dihydro-4H-1,2,4-oxadiazine] yielded an inhibition at 20 ppm (Fusarium culmorum; [2]) of 70 to 79%, an inhibition at 20 ppm (Pyricularia oryzae) of 90 to 100% and a chromatographic logP (physchem) of 4.89. For the same molecule, the inhibition at 20 ppm [1] was 90 to 100%, the inhibition at 20 ppm (Alternaria alternata) was 90 to 100% and the inhibition at 20 ppm (Septoria tritici) was 90 to 100%.

In the case of `Cc1ccc(CC2CON=C(c3ccncc3Oc3cccc(C(F)(F)F)c3)N2)cc1` (racemic) [Compound I-039, (5RS)-5-(4-methylbenzyl)-3-{3-[3-(trifluoromethyl)phenoxy]pyridin-4-yl}-5,6-dihydro-4H-1,2,4-oxadiazine], the inhibition at 20 ppm (Fusarium culmorum) is reported as 90 to 100%, the chromatographic logP (physchem) is reported as 3.47 and the inhibition at 20 ppm [1] is reported as 90 to 100%. For the same molecule, the inhibition at 20 ppm (Alternaria alternata) was 90 to 100% and the inhibition at 20 ppm (Septoria tritici) was 80 to 89%.

For `FC(F)c1cccc(Oc2cnc(Cl)cc2C2=NOC[C@@H](Cc3ccc([C@H]4CCOC4)cc3Cl)N2)c1` (racemic) [Compound I-041, (5RS)-3-{2-chloro-5-[3-(difluoromethyl)phenoxy]pyridin-4-yl}-5-{2-chloro-4-[(3RS)-tetrahydrofuran-3-yl]benzyl}-5,6-dihydro-4H-1,2,4-oxadiazine], the inhibition at 20 ppm (Pyricularia oryzae) was 80 to 89%, the chromatographic logP (physchem) was 3.81 and the inhibition at 20 ppm [1] was 90 to 100%. For the same molecule, the inhibition at 20 ppm (Alternaria alternata) was 90 to 100% and the inhibition at 20 ppm (Septoria tritici) was 70 to 79%.

`COc1ccc(C2NC(c3cc(Cl)ncc3Oc3cccc(C(F)(F)F)c3)=NOC2(F)F)cc1` (racemic) [Compound I-047, (5RS)-3-{2-chloro-5-[3-(trifluoromethyl)phenoxy]pyridin-4-yl}-6,6-difluoro-5-(4-methoxyphenyl)-5,6-dihydro-4H-1,2,4-oxadiazine] showed an inhibition at 20 ppm (Fusarium culmorum; [2]) of 80 to 89%, an inhibition at 20 ppm (Pyricularia oryzae) of 90 to 100% and a chromatographic logP (physchem) of 4.14. It also gave an inhibition at 20 ppm [1] of 90 to 100%, an inhibition at 20 ppm (Alternaria alternata) of 90 to 100% and an inhibition at 20 ppm (Septoria tritici) of 90 to 100%.

`Cc1ccc(C[C@@H]2CON=C(c3cc([C@@H]4CCOC4)ncc3Oc3cccc(C(F)(F)F)c3)N2)cc1` (racemic) [Compound I-058, (5RS)-5-(4-methylbenzyl)-3-{2-[(3SR)-tetrahydrofuran-3-yl]-5-[3-(trifluoromethyl)phenoxy]pyridin-4-yl}-5,6-dihydro-4H-1,2,4-oxadiazine] gave an inhibition at 20 ppm (Fusarium culmorum) of 90 to 100%, an inhibition at 20 ppm (Pyricularia oryzae) of 90 to 100% and a chromatographic logP (physchem) of 3.78. For the same molecule, the inhibition at 20 ppm [1] was 90 to 100%, the inhibition at 20 ppm (Alternaria alternata) was 90 to 100% and the inhibition at 20 ppm (Septoria tritici) was 90 to 100%.

`Cc1ccc(C2CON=C(c3cc(Cl)ncc3Oc3cccc(C(F)(F)F)c3)N2)s1` (racemic) [Compound I-097, rac-(5S)-3-[2-chloro-5-[3-(trifluoromethyl)phenoxy]-4-pyridyl]-5-(5-methyl-2-thienyl)-5,6-dihydro-4H-1,2,4-oxadiazine] showed an inhibition at 20 ppm (Fusarium culmorum) of 90 to 100%, an inhibition at 20 ppm (Pyricularia oryzae) of 70 to 79% and a chromatographic logP (physchem) of 3.87. It also gave an inhibition at 20 ppm [1] of 90 to 100%, an inhibition at 20 ppm (Alternaria alternata) of 90 to 100% and an inhibition at 20 ppm (Septoria tritici) of 90 to 100%.

`Cc1cc(C2CC2)ccc1CC1CON=C(c2cc(Cl)ncc2Oc2cccc(C(F)(F)F)c2)N1` (racemic) [Compound I-107, rac-(5R)-3-[2-chloro-5-[3-(trifluoromethyl)phenoxy]-4-pyridyl]-5-[(4-cyclopropyl-2-methyl-phenyl)methyl]-5,6-dihydro-4H-1,2,4-oxadiazine] showed an inhibition at 20 ppm (Pyricularia oryzae) of 90 to 100%, a chromatographic logP (physchem) of 4.88 and an inhibition at 20 ppm [1] of 90 to 100%. For the same molecule, the inhibition at 20 ppm (Alternaria alternata) was 80 to 89% and the inhibition at 20 ppm (Septoria tritici) was 90 to 100%.
